Several values for one entry are separate records, joined by “and”; a condition that tells them apart may be missing. Identical values can stand only once. Numbers after ± are expanded uncertainties.
Key:
[1] = for Normal melting temperature: Crystal, DTA; for vapor or sublimation pressure: Liquid, Transpiration method
[2] = Molar enthalpy of transition or fusion; details: Crystal; DSC

Cc1cc(C)c(C#N)c(C)c1 [2,4,6-trimethylbenzonitrile]
Details	Molar enthalpy of transition or fusion [kcal/mol]	Normal melting temperature [°C]
[1]	–	52.4 ± 1.1
[2]	3.7 ± 0.12	–

Cc1ccccc1C#N [2-methylbenzonitrile]
[1]
Details	vapor or sublimation pressure
287.4 K	0.02064 ± 0.0014 kPa
289.2 K	0.02389 ± 0.0015 kPa
290.3 K	0.02582 ± 0.0017 kPa
292.4 K	0.03043 ± 0.002 kPa
296.3 K	0.04075 ± 0.0026 kPa
298.1 K	0.0467 ± 0.003 kPa
300.7 K	0.05531 ± 0.0035 kPa
305.1 K	0.07684 ± 0.0049 kPa
308.2 K	0.0961 ± 0.0061 kPa
311 K	0.1162 ± 0.0073 kPa
312 K	0.1257 ± 0.0079 kPa and 0.1248 ± 0.0079 kPa
314.9 K	0.1494 ± 0.0094 kPa
316.1 K	0.1625 ± 0.01 kPa
318.1 K	0.1865 ± 0.012 kPa
321.1 K	0.2216 ± 0.014 kPa
322.2 K	0.2425 ± 0.015 kPa
324.2 K	0.2729 ± 0.017 kPa

Cc1cccc(C#N)c1 [3-cyanotoluene]
[1]
Details	vapor or sublimation pressure [kPa]
279.8 K	0.0072 ± 0.0005
281.3 K	0.00829 ± 0.00057
283.7 K	0.01033 ± 0.00069
285.7 K	0.01206 ± 0.00081
288.3 K	0.01513 ± 0.001
290.3 K	0.01801 ± 0.0012
292.4 K	0.02154 ± 0.0014
294.3 K	0.02516 ± 0.0016
297.2 K	0.03103 ± 0.002
300 K	0.03937 ± 0.0025
302.1 K	0.04606 ± 0.0029
304.1 K	0.05317 ± 0.0034
307.7 K	0.06905 ± 0.0044
309.2 K	0.0755 ± 0.0048
310.1 K	0.08291 ± 0.0052
312 K	0.09159 ± 0.0058
313.7 K	0.1049 ± 0.0066

Cc1ccc(C#N)cc1 [4-cyanotoluene]
[1]
Details	vapor or sublimation pressure
302.1 K	0.03154 ± 0.002 kPa
303.2 K	0.03377 ± 0.0022 kPa
305.3 K	0.04002 ± 0.0026 kPa
309.1 K	0.05079 ± 0.0032 kPa
311 K	0.06008 ± 0.0038 kPa
313.1 K	0.06747 ± 0.0043 kPa
315 K	0.07922 ± 0.005 kPa
319.1 K	0.09993 ± 0.0063 kPa
320.9 K	0.1159 ± 0.0073 kPa
322.9 K	0.1303 ± 0.0081 kPa
325 K	0.1463 ± 0.0092 kPa and 0.1458 ± 0.0092 kPa
329 K	0.1856 ± 0.012 kPa
331 K	0.2118 ± 0.013 kPa
332.8 K	0.2374 ± 0.015 kPa
334.9 K	0.2629 ± 0.016 kPa

Details	Molar enthalpy of transition or fusion [kcal/mol]	Normal melting temperature [°C]
[1]	–	26.2 ± 1.1
[2]	3.85 ± 0.12	–
